Data: ChEMBL document CHEMBL3991601, “The target landscape of clinical kinase drugs” (Science, 2017)
Active and inactive are the calls of the source.

These compounds were tested against Activin receptor type-2B (Homo sapiens, UniProt Q13705). Conditions: not given.
Also: in the data inactive means no Kd found up to 30 µM.

Chain of Activin receptor type-2B (Q13705 whole entry): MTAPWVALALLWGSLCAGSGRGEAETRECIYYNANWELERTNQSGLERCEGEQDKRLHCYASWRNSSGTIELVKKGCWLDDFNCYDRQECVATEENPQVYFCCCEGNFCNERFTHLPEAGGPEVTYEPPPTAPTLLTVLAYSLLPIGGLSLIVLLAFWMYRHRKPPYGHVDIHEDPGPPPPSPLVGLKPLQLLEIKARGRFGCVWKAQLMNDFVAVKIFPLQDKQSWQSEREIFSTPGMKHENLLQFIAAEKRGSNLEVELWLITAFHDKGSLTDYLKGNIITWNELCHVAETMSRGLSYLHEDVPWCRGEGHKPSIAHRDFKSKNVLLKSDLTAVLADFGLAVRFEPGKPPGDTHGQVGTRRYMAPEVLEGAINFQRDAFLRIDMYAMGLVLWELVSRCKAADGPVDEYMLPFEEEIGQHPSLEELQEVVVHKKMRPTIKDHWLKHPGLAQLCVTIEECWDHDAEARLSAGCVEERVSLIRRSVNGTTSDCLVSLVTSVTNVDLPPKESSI

Compound | Kd
CNC(=O)c1ccc(C)c(-n2c(C)cc(OCc3ccc(F)cc3F)c(Br)c2=O)c1 [PH-797804] | > 30 µM (inactive)
C=CC(=O)N1CCC(Oc2cc3c(Nc4ccc(Cl)c(Cl)c4F)ncnc3cc2OC)CC1 [POZIOTINIB] | > 30 µM (inactive)
CNC(=O)c1cc(Oc2ccc(NC(=O)Nc3ccc(Cl)c(C(F)(F)F)c3)c(F)c2)ccn1 [REGORAFENIB] | > 30 µM (inactive)

These compounds were tested against T1, Peroxisomal acyl-coenzyme A oxidase 3 (Homo sapiens, UniProt O15254). Conditions: not given.
T1 sequence (O15254 whole entry): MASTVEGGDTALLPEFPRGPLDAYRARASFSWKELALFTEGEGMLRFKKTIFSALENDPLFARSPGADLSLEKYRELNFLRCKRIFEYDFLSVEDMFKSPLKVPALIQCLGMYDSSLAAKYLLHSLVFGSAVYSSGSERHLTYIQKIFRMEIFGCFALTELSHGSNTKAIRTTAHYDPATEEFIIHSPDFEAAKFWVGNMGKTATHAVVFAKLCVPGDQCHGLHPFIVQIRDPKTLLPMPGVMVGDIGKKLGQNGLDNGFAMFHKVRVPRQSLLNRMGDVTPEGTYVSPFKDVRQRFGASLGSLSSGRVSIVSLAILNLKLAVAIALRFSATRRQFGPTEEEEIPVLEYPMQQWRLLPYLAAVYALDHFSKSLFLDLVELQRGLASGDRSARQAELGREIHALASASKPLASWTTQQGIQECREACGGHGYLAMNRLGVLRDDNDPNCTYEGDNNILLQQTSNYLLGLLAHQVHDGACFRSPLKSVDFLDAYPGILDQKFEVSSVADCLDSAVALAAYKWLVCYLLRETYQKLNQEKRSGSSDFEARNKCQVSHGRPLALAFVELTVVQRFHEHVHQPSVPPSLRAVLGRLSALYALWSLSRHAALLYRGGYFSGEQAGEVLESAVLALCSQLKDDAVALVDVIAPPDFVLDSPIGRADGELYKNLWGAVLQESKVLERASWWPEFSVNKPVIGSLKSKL

Compound | Kd
CNC(=O)c1ccc(C)c(-n2c(C)cc(OCc3ccc(F)cc3F)c(Br)c2=O)c1 [PH-797804] | > 30 µM (inactive)
C=CC(=O)N1CCC(Oc2cc3c(Nc4ccc(Cl)c(Cl)c4F)ncnc3cc2OC)CC1 [POZIOTINIB] | > 30 µM (inactive)
CNC(=O)c1cc(Oc2ccc(NC(=O)Nc3ccc(Cl)c(C(F)(F)F)c3)c(F)c2)ccn1 [REGORAFENIB] | > 30 µM (inactive)

What follows are compounds tested against Tyrosine-protein kinase SYK (Homo sapiens, UniProt P43405). Conditions: not given.

Compound | Kd
CNC(=O)c1ccc(C)c(-n2c(C)cc(OCc3ccc(F)cc3F)c(Br)c2=O)c1 [PH-797804] | > 30 µM (inactive)
C=CC(=O)N1CCC(Oc2cc3c(Nc4ccc(Cl)c(Cl)c4F)ncnc3cc2OC)CC1 [POZIOTINIB] | > 30 µM (inactive)
CNC(=O)c1cc(Oc2ccc(NC(=O)Nc3ccc(Cl)c(C(F)(F)F)c3)c(F)c2)ccn1 [REGORAFENIB] | > 30 µM (inactive)

These compounds were tested against Serine/threonine-protein kinase MRCK beta (Homo sapiens, UniProt Q9Y5S2). Conditions: not given.
Chain of Serine/threonine-protein kinase MRCK beta (Q9Y5S2 whole entry): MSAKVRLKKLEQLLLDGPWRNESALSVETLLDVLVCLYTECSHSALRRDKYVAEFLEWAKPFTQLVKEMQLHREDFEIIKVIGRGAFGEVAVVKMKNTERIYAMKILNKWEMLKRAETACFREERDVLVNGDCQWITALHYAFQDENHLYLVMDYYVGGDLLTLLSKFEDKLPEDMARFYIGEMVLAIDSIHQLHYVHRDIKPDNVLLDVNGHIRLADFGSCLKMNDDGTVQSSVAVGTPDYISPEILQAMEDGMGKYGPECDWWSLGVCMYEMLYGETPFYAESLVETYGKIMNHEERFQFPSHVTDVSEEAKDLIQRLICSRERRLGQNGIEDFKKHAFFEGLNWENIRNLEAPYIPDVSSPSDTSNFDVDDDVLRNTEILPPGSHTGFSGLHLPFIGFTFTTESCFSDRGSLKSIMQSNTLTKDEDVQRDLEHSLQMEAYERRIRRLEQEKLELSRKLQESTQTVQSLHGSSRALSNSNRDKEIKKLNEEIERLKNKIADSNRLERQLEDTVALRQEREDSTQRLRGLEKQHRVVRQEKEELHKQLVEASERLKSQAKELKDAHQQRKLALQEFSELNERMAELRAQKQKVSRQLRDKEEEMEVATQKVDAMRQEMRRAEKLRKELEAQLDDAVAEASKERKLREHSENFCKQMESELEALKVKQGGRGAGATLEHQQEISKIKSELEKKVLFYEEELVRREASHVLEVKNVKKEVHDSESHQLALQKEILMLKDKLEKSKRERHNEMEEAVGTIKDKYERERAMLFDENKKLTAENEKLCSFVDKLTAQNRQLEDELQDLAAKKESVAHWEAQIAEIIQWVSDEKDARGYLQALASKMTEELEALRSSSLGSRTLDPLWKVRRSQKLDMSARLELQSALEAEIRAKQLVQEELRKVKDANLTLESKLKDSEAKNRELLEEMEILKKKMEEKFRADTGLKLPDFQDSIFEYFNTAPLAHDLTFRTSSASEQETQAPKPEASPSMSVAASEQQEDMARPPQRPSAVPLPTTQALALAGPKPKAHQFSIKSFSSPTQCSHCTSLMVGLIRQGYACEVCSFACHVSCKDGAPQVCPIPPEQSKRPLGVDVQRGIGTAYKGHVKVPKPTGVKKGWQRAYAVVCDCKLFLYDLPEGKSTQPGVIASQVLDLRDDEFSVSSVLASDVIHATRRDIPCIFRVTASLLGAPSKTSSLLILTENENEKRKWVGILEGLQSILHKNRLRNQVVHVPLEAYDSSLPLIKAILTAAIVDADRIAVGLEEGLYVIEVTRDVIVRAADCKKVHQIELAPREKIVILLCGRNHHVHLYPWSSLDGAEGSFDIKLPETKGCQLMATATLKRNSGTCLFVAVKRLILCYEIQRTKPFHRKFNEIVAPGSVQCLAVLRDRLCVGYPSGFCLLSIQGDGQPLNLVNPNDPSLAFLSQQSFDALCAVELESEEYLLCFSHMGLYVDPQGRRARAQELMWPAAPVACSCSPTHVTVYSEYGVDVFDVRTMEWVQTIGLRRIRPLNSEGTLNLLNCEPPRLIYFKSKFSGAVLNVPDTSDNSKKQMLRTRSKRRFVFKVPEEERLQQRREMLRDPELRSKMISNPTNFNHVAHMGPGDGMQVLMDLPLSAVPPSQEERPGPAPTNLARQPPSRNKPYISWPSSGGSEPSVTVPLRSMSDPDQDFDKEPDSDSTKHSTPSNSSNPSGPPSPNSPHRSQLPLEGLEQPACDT

Compound | Kd
CNC(=O)c1ccc(C)c(-n2c(C)cc(OCc3ccc(F)cc3F)c(Br)c2=O)c1 [PH-797804] | > 30 µM (inactive)
C=CC(=O)N1CCC(Oc2cc3c(Nc4ccc(Cl)c(Cl)c4F)ncnc3cc2OC)CC1 [POZIOTINIB] | > 30 µM (inactive)
CNC(=O)c1cc(Oc2ccc(NC(=O)Nc3ccc(Cl)c(C(F)(F)F)c3)c(F)c2)ccn1 [REGORAFENIB] | > 30 µM (inactive)

Each compound was assayed against Cyclin-dependent kinase 4 (Homo sapiens, UniProt P11802). Conditions: not given.
Chain of Cyclin-dependent kinase 4 (P11802 whole entry): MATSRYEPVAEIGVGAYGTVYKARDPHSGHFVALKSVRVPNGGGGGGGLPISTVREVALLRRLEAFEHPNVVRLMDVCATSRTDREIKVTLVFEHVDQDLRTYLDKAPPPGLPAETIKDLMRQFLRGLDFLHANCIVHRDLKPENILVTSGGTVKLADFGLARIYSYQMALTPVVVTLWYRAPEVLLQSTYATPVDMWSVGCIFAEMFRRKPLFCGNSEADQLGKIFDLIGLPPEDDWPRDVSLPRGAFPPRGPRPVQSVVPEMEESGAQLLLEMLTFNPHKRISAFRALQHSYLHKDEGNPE

Compound | Kd
CNC(=O)c1ccc(C)c(-n2c(C)cc(OCc3ccc(F)cc3F)c(Br)c2=O)c1 [PH-797804] | > 30 µM (inactive)
C=CC(=O)N1CCC(Oc2cc3c(Nc4ccc(Cl)c(Cl)c4F)ncnc3cc2OC)CC1 [POZIOTINIB] | > 30 µM (inactive)
CNC(=O)c1cc(Oc2ccc(NC(=O)Nc3ccc(Cl)c(C(F)(F)F)c3)c(F)c2)ccn1 [REGORAFENIB] | > 30 µM (inactive)

These compounds were tested against T2, Glycogen phosphorylase, liver form (Homo sapiens, UniProt P06737). Conditions: read-out: Kd apparent.
T2 sequence (P06737 whole entry): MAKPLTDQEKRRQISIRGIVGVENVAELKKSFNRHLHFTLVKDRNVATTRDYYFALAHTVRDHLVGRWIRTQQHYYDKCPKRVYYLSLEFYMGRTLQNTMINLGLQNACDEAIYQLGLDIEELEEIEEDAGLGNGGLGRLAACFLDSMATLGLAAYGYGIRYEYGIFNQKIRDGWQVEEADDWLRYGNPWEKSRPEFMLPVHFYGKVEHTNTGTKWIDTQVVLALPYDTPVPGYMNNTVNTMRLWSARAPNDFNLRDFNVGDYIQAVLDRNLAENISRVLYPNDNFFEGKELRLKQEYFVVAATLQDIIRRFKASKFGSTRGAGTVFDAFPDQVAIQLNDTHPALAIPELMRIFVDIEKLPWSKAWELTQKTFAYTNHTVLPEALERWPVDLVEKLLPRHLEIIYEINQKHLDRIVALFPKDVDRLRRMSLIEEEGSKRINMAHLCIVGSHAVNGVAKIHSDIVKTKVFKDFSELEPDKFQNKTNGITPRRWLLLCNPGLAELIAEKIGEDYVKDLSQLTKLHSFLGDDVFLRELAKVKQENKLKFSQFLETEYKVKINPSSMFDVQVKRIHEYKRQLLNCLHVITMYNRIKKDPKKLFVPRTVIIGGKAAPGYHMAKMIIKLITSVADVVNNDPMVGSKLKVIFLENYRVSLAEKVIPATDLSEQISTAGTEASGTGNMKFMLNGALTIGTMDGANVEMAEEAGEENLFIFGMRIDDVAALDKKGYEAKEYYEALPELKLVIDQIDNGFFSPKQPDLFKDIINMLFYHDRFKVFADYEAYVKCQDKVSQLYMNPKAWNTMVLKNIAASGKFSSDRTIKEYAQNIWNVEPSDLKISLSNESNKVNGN
Format: subcellular, K-562, COLO 205, SK-N-BE(2) and MV-4-11, Cell lysate

Compound | Kd
CNC(=O)c1ccc(C)c(-n2c(C)cc(OCc3ccc(F)cc3F)c(Br)c2=O)c1 [PH-797804] | > 30 µM (inactive)
C=CC(=O)N1CCC(Oc2cc3c(Nc4ccc(Cl)c(Cl)c4F)ncnc3cc2OC)CC1 [POZIOTINIB] | > 30 µM (inactive)
CNC(=O)c1cc(Oc2ccc(NC(=O)Nc3ccc(Cl)c(C(F)(F)F)c3)c(F)c2)ccn1 [REGORAFENIB] | > 30 µM (inactive)

The compounds below were run against Mitogen-activated protein kinase 8 (Homo sapiens, UniProt P45983). Conditions: not given.
Chain of Mitogen-activated protein kinase 8 (P45983 whole entry): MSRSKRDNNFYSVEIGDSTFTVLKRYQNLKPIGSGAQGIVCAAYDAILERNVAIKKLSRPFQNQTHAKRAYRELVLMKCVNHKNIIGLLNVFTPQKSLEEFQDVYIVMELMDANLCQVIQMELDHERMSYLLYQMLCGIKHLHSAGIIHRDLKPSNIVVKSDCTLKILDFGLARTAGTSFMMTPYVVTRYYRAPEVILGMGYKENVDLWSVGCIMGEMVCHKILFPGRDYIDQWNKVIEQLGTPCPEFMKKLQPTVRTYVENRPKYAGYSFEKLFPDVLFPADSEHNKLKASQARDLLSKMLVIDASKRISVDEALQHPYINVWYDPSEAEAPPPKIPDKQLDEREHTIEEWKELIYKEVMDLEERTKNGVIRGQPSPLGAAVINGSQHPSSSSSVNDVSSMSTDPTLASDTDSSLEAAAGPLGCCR

Compound | Kd
CNC(=O)c1ccc(C)c(-n2c(C)cc(OCc3ccc(F)cc3F)c(Br)c2=O)c1 [PH-797804] | > 30 µM (inactive)
C=CC(=O)N1CCC(Oc2cc3c(Nc4ccc(Cl)c(Cl)c4F)ncnc3cc2OC)CC1 [POZIOTINIB] | > 30 µM (inactive)
CNC(=O)c1cc(Oc2ccc(NC(=O)Nc3ccc(Cl)c(C(F)(F)F)c3)c(F)c2)ccn1 [REGORAFENIB] | > 30 µM (inactive)

The compounds below were run against T3, Delta(24)-sterol reductase (Homo sapiens, UniProt Q15392). Conditions: not given.
T3 sequence (Q15392 whole entry): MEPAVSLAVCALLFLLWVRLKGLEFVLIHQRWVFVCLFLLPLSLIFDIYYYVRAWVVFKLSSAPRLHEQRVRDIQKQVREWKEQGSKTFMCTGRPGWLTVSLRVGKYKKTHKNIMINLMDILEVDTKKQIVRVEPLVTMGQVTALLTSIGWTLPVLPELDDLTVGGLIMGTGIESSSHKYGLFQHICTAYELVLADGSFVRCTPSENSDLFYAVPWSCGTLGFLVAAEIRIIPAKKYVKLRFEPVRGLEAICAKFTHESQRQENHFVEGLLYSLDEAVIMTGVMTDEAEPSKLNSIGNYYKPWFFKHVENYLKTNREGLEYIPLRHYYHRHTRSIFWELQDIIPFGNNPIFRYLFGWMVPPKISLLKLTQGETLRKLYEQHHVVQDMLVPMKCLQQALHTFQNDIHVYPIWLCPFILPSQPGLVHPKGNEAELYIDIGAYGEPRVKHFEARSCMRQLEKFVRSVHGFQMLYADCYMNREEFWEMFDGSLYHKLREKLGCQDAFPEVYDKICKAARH

Compound | Kd
CNC(=O)c1ccc(C)c(-n2c(C)cc(OCc3ccc(F)cc3F)c(Br)c2=O)c1 [PH-797804] | > 30 µM (inactive)
C=CC(=O)N1CCC(Oc2cc3c(Nc4ccc(Cl)c(Cl)c4F)ncnc3cc2OC)CC1 [POZIOTINIB] | > 30 µM (inactive)
CNC(=O)c1cc(Oc2ccc(NC(=O)Nc3ccc(Cl)c(C(F)(F)F)c3)c(F)c2)ccn1 [REGORAFENIB] | > 30 µM (inactive)

What follows are compounds tested against cAMP-dependent protein kinase catalytic subunit beta (Homo sapiens, UniProt P22694). Conditions: not given.

Compound | Kd
CNC(=O)c1ccc(C)c(-n2c(C)cc(OCc3ccc(F)cc3F)c(Br)c2=O)c1 [PH-797804] | > 30 µM (inactive)
C=CC(=O)N1CCC(Oc2cc3c(Nc4ccc(Cl)c(Cl)c4F)ncnc3cc2OC)CC1 [POZIOTINIB] | > 30 µM (inactive)
CNC(=O)c1cc(Oc2ccc(NC(=O)Nc3ccc(Cl)c(C(F)(F)F)c3)c(F)c2)ccn1 [REGORAFENIB] | > 30 µM (inactive)

The compounds below were run against Tyrosine-protein kinase Fyn (Homo sapiens, UniProt P06241). Conditions: not given.
Chain of Tyrosine-protein kinase Fyn (P06241 whole entry): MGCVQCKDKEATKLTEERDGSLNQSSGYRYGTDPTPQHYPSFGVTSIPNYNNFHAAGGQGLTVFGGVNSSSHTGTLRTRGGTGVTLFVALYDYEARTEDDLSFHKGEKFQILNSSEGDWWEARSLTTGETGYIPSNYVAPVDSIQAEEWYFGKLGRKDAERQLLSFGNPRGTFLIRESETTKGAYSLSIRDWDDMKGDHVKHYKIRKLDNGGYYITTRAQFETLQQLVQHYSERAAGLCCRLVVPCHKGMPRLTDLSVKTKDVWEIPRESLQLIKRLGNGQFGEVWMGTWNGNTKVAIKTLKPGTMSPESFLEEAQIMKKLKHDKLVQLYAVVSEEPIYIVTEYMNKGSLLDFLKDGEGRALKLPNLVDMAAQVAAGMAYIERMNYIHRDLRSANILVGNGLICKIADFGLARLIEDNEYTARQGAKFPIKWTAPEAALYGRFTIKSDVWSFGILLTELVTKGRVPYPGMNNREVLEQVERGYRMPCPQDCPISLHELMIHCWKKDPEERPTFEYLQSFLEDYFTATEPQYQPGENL

Compound | Kd
CNC(=O)c1ccc(C)c(-n2c(C)cc(OCc3ccc(F)cc3F)c(Br)c2=O)c1 [PH-797804] | > 30 µM (inactive)
C=CC(=O)N1CCC(Oc2cc3c(Nc4ccc(Cl)c(Cl)c4F)ncnc3cc2OC)CC1 [POZIOTINIB] | > 30 µM (inactive)
CNC(=O)c1cc(Oc2ccc(NC(=O)Nc3ccc(Cl)c(C(F)(F)F)c3)c(F)c2)ccn1 [REGORAFENIB] | > 30 µM (inactive)

The compounds below were run against T4, Succinate--CoA ligase [ADP-forming] subunit beta, mitochondrial (Homo sapiens, UniProt Q9P2R7). Conditions: not given.
T4 sequence (Q9P2R7 whole entry): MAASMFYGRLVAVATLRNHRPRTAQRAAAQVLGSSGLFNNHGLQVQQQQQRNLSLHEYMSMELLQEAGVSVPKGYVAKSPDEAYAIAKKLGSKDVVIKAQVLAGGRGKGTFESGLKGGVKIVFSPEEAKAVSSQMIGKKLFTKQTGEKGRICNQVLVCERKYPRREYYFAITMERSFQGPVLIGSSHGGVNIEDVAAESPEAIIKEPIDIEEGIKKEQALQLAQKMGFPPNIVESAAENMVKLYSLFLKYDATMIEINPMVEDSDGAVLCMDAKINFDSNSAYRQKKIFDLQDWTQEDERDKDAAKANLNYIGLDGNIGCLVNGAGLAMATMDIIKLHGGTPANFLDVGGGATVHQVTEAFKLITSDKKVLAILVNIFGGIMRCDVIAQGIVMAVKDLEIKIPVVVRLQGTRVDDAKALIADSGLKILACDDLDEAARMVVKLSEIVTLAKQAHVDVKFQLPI

Compound | Kd
CNC(=O)c1ccc(C)c(-n2c(C)cc(OCc3ccc(F)cc3F)c(Br)c2=O)c1 [PH-797804] | > 30 µM (inactive)
C=CC(=O)N1CCC(Oc2cc3c(Nc4ccc(Cl)c(Cl)c4F)ncnc3cc2OC)CC1 [POZIOTINIB] | > 30 µM (inactive)
CNC(=O)c1cc(Oc2ccc(NC(=O)Nc3ccc(Cl)c(C(F)(F)F)c3)c(F)c2)ccn1 [REGORAFENIB] | > 30 µM (inactive)
